Starred links: 1 amine or outer side, 2 acyl side, 3 side chain; linkers in the order of their positions; H or OH if unused. Positions of bridges follow the written chain, without caps; N, C: chain ends. Non-standard residues stand in square brackets, D forms with d. Residues, ends and D or L forms follow the SMILES beside them. X30 = O=C([C@H](CCNC[C@H](O)[C@@H](O)[C@H](O[C@H]1O[C@H](CO)[C@@H](O)[C@H](O)[C@H]1O)[C@H](O)CO)N[*:1])[*:2]; X29 = O=C([C@H](CNC[C@H](O)[C@@H](O)[C@H](O[C@H]1O[C@H](CO)[C@@H](O)[C@H](O)[C@H]1O)[C@H](O)CO)N[*:1])[*:2]; X25 = CC(=O)N[C@@H](CNCC[C@H](N[*:1])C(=O)[*:2])[C@@H](O)[C@H](O)[C@H](O)CO; X24 = CC(=O)N[C@@H](CNC[C@H](N[*:1])C(=O)[*:2])[C@@H](O)[C@H](O)[C@H](O)CO; X1 = O=C([C@H](CNC[C@H](O)[C@H](O)[C@H](O)[C@H](O)CO)N[*:1])[*:2]; X68 = O=C([C@H](CCNC[C@@H](O)[C@H](O)[C@H](O)CO)N[*:1])[*:2]; X67 = O=C([C@H](CNC[C@@H](O)[C@H](O)[C@H](O)CO)N[*:1])[*:2]; Trp(1-CH2COOH) = N[C@@H](Cc1cn(CC(=O)O)c2ccccc12)C(=O)O; Hyp = O=C(O)[C@@H]1C[C@@H](O)CN1; NMeNle = CCCC[C@H](NC)C(=O)O; NMeA = CN[C@@H](C)C(=O)O; Dab = NCC[C@H](N)C(=O)O
Biological target: T1, PD-1/PD-L1 (Homo sapiens, UniProt Q9NZQ7)
T1 construct: TVMV protease site (linker) (C); made in house; host or cells: HEK293T cells
Assay: PD-1/PD-L1 Homogenous Time-Resolved Fluorescence (HTRF) binding assay
Settings: PD-L1-His 10 nM, PD-1-Ig 20 nM
From the text: The ability of the compounds of formula (I) to bind to PD-L1 was investigated using a PD-1/PD-L1 Homogenous Time-Resolved Fluorescence (HTRF) binding assay.
The interaction of PD-1 and PD-L1 can be assessed using soluble, purified preparations of the extracellular domains of the two proteins. The PD-1 and PD-L1 protein extracellular domains were expressed as fusion proteins with detection tags, for PD-1, the tag was the Fc portion of Immunoglobulin (PD-1-Ig) and for PD-L1 it was the 6 histidine motif (PD-L1-His). All binding studies were performed in an HTRF assay buffer consisting of dPBS supplemented with 0.1% […] bovine serum albumin and 0.05% (v/v) Tween-20. For the h/PD-L1-His binding assay, inhibitors were pre-incubated with PD-L1-His (10 nM final) for 15 m in 4 µl of assay buffer, followed by addition of PD-1-Ig (20 nM final) in 1 µl of assay buffer and further incubation for 15 m. HTRF detection was achieved using europium crypate-labeled anti-Ig (1 nM final) and allophycocyanin (APC) labeled anti-His (20 nM final). Antibodies were diluted in HTRF detection buffer and 5 µl was dispensed on top of the binding reaction. The reaction mixture was allowed to equilibrate for 30 minutes and the resulting signal (665 nm/620 nm ratio) was obtained using an EnVision fluorometer. Additional binding assays were established between the human proteins PD-1-Ig/PD-L2-His (20 & 5 nM, respectively) and CD80-His/PD-L1-Ig (100 & 10 nM, respectively).
Recombinant Proteins: Human PD-1 (25-167) with a C-terminal human Fc domain of immunoglobulin G (Ig) epitope tag [hPD-1 (25-167)-3S-IG] and human PD-L1 (18-239) with a C-terminal His epitope tag [hPD-L1(18-239)-TVMV-His] were expressed in HEK293T cells and purified sequentially by ProteinA affinity chromatography and size exclusion chromatography. Human PD-L2-His and CD80-His was obtained through commercial sources.
Table 1 lists the IC50 values for representative examples of this disclosure measured in the PD-1/PD-L1 Homogenous Time-Resolved Fluorescence (HTRF) binding assay.

T1 sequence (Q9NZQ7 18-239): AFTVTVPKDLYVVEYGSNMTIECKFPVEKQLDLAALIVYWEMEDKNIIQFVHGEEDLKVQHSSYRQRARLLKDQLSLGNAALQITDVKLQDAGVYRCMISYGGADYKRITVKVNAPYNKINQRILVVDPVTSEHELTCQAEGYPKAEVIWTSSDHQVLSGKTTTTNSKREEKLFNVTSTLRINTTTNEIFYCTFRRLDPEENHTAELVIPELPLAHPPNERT

Structure (SMILES)	IC50
CCCC[C@H]1C(=O)N(C)[C@@H](CCCC)C(=O)N[C@@H](CC(C)C)C(=O)N[C@H](C(=O)NCC(N)=O)CSCC(=O)N[C@@H](Cc2ccc(O)cc2)C(=O)N(C)[C@@H](C)C(=O)N[C@@H](CC(N)=O)C(=O)N2CCC[C@H]2C(=O)N[C@@H](CNC[C@H](NC(C)=O)[C@@H](O)[C@H](O)[C@H](O)CO)C(=O)N[C@@H](CC(C)C)C(=O)N2C[C@H](O)C[C@H]2C(=O)N[C@@H](Cc2c[nH]c3ccccc23)C(=O)N[C@@H](CCNC[C@H](NC(C)=O)[C@@H](O)[C@H](O)[C@H](O)CO)C(=O)N[C@@H](Cc2cn(CC(=O)O)c3ccccc23)C(=O)N1C [Example 2009] ({CH2CO}-Y[NMeA]NP[X24]L[Hyp]W[X25][Trp(1-CH2COOH)][NMeNle][NMeNle]LCG-NH2; thioether N-14)	5.7 nM
CCCC[C@H]1C(=O)N(C)[C@@H](CCCC)C(=O)N[C@@H](CC(C)C)C(=O)N[C@H](C(=O)NCC(N)=O)CSCC(=O)N[C@@H](Cc2ccc(O)cc2)C(=O)N(C)[C@@H](C)C(=O)N[C@@H](CC(N)=O)C(=O)N2CCC[C@H]2C(=O)N[C@@H](CNC[C@H](O)[C@@H](O)[C@H](O[C@H]2O[C@H](CO)[C@@H](O)[C@H](O)[C@H]2O)[C@H](O)CO)C(=O)N[C@@H](CC(C)C)C(=O)N2C[C@H](O)C[C@H]2C(=O)N[C@@H](Cc2c[nH]c3ccccc23)C(=O)N[C@@H](CCN)C(=O)N[C@@H](Cc2cn(CC(=O)O)c3ccccc23)C(=O)N1C [Example 2011] ({CH2CO}-Y[NMeA]NP[X29]L[Hyp]W[Dab][Trp(1-CH2COOH)][NMeNle][NMeNle]LCG-NH2; thioether N-14)	8.8 nM

Further compounds by falling IC50, results first:

IC50	Structure (SMILES)
5.1 nM	CCCC[C@H]1C(=O)N(C)[C@@H](CCCC)C(=O)N[C@@H](CC(C)C)C(=O)N[C@H](C(=O)NCC(N)=O)CSCC(=O)N[C@@H](Cc2ccc(O)cc2)C(=O)N(C)[C@@H](C)C(=O)N[C@@H](CC(N)=O)C(=O)N2CCC[C@H]2C(=O)N[C@@H](CNC[C@H](O)[C@H](O)[C@H](O)[C@H](O)CO)C(=O)N[C@@H](CC(C)C)C(=O)N2C[C@H](O)C[C@H]2C(=O)N[C@@H](Cc2c[nH]c3ccccc23)C(=O)N[C@@H](CCN)C(=O)N[C@@H](Cc2cn(CC(=O)O)c3ccccc23)C(=O)N1C [Example 2007] ({CH2CO}-Y[NMeA]NP[X1]L[Hyp]W[Dab][Trp(1-CH2COOH)][NMeNle][NMeNle]LCG-NH2; thioether N-14)
2.1 nM	CCCC[C@H]1C(=O)N(C)[C@@H](CCCC)C(=O)N[C@@H](CC(C)C)C(=O)N[C@H](C(=O)NCC(N)=O)CSCC(=O)N[C@@H](Cc2ccc(O)cc2)C(=O)N(C)[C@@H](C)C(=O)N[C@@H](CC(N)=O)C(=O)N2CCC[C@H]2C(=O)N[C@@H](CNC[C@H](O)[C@@H](O)[C@H](O[C@H]2O[C@H](CO)[C@@H](O)[C@H](O)[C@H]2O)[C@H](O)CO)C(=O)N[C@@H](CC(C)C)C(=O)N2C[C@H](O)C[C@H]2C(=O)N[C@@H](Cc2c[nH]c3ccccc23)C(=O)N[C@@H](CCNC[C@H](O)[C@@H](O)[C@H](O[C@H]2O[C@H](CO)[C@@H](O)[C@H](O)[C@H]2O)[C@H](O)CO)C(=O)N[C@@H](Cc2cn(CC(=O)O)c3ccccc23)C(=O)N1C [Example 2010] ({CH2CO}-Y[NMeA]NP[X29]L[Hyp]W[X30][Trp(1-CH2COOH)][NMeNle][NMeNle]LCG-NH2; thioether N-14)
0.7 nM	CCCC[C@H]1C(=O)N(C)[C@@H](CCCC)C(=O)N[C@@H](CC(C)C)C(=O)N[C@H](C(=O)NCC(N)=O)CSCC(=O)N[C@@H](Cc2ccc(O)cc2)C(=O)N(C)[C@@H](C)C(=O)N[C@@H](CC(N)=O)C(=O)N2CCC[C@H]2C(=O)N[C@@H](CNC[C@@H](O)[C@H](O)[C@H](O)CO)C(=O)N[C@@H](CC(C)C)C(=O)N2C[C@H](O)C[C@H]2C(=O)N[C@@H](Cc2c[nH]c3ccccc23)C(=O)N[C@@H](CCNC[C@@H](O)[C@H](O)[C@H](O)CO)C(=O)N[C@@H](Cc2cn(CC(=O)O)c3ccccc23)C(=O)N1C [Example 2012] ({CH2CO}-Y[NMeA]NP[X67]L[Hyp]W[X68][Trp(1-CH2COOH)][NMeNle][NMeNle]LCG-NH2; thioether N-14)

— patent US20230242585A1, “IMMUNOMODULATORS” (Bristol-Myers Squibb Company, priority 2020, published 2023)
